Test results: patent US12522575B2, “2-diarylmethyl-4-aminotetrahydropyran derivatives and related compounds as anticancer, antiinflammatory, antifibrotic and neuroprotective agents” (Atux Iskay LLC, priority 2021, dated 2026)

Columns and labels:
[1] = test system: A172 glioblastoma cells; assay: A172 cell viability / proliferation (CellTiter-Glo); type: cell-based; conditions: Homo sapiens, A 172, 48-72 hours treatment, read-out: IC50 for A172 cell growth
Experimental: A172 glioblastoma cells were cultured in Dulbecco's modified Eagle's medium (DMEM) supplemented with 10% fetal bovine serum and 1% Penicillin-streptomycin. Incubation was performed at 37° C. and 5% CO2.
A172 cells were seeded at 3000-3500 cells/90 μL growth medium per well on 96-well tissue culture plates. Cells were incubated overnight to allow them to recover and reattach. Next day cells were treated with tested compounds and incubated for 48-72 hours.
Cell Proliferation assays in triplicate were performed at each concentration. Compounds test range was 1-30 µM (0, 5, 10, 15, 20, 25, and 30). The compounds were dissolved in DMSO. […]
After treatment, cells were allowed to equilibrate at room temperature for 1/2 to one hour. Cell proliferation was measured by Luminescence quantification using Promega CellTiter-Glo Luminescent Cell Viability Assay. […] Luminescence intensity was measured using the Spectramax i3× plate reader.
The Luminescence intensity data were analyzed using the computer software Graphpad Prism. In the absence of the compound, the luminescence intensity (Lt) in each data set was defined as 100% cell viability. The percent cell in the presence of each compound was calculated according to the following equation: % Cell=L/Lt, were L=the luminescence intensity in the presence of the compound. […]

[2] = test system: lung fibroblasts from healthy subjects; assay: Fibrosis associated gene expression in lung fibroblasts; type: cell-based; conditions: 1 μM, 24 hours, TGF-β (FIG. 1)
Experimental: Each dot represents cells from a different subject. Student t-tests or 2-way ANOVA were performed and a p-value […] was denoted as * when comparing to the vehicle treated groups or ** when comparing to the TGF-β vehicle groups.
Compounds of the present invention activate PP2A responses in fibroblasts from healthy subjects. Lung fibroblasts from 6 subjects were stimulated with 1 micromolar of example compounds for 24 hours.

[3] = test system: ERK and JNK; assay: ERK and JNK signaling in lung fibroblasts (immunoblot, densitometry); type: cell-based; conditions: 1 μM, 24 hours, lung fibroblasts (FIGS. 2 and 3)
Experimental: Each dot represents cells from a different subject. Student t-tests or 2-way ANOVA were performed and a p-value […] was denoted as ** when comparing between phosphorylated and unphosphorylated groups.
Compounds of the present invention reactivate PP2A responses in fibroblasts from healthy and IPF subjects.

[4] = test system: bleomycin-induced pulmonary fibrosis; assay: Bleomycin induced lung fibrosis model in mice; type: in vivo
Excerpt: Bleomycin exposure reproducibly induces lung fibrosis in mice and bleomycin induced lung fibrosis is commonly used as an animal model to assess the efficacy of experimental therapeutics for idiopathic pulmonary fibrosis, see for example Tashiro et al, “Exploring Animal Models that Resemble Idiopathic Pulmonary Fibrosis”, Front. Med. 4:118 (2017). doi: 10.3389/fmed.2017.0018. Herein presented are data on the efficacy of Example 6 (Ex-6) in cellular models of lung fibrosis and in a mouse bleoycin induced lung fibrosis model, see FIGS. 1 through 8.
In brief, the animal model consisted of bleomycin administration using a combined protocol previously described by Wyman et al (Wyman, A. E., et al., “Sirtuin 7 is decreased in pulmonary fibrosis and regulates the fibrotic phenotype of lung fibroblasts”. Am J Physiol Lung Cell Mol Physiol, 2017. 312 (6): p. L945-L958.) and Geraghty et al (Geraghty, P. and Foronjy, R. ‘Protein Transfection of Mouse Lung’. J Vis Exp, (75), e50080 2013 May 15). After sedation was achieved (87.5 mg/kg Ketamine/12.5 mg/kg xylazine), mice were suspended from their upper incisors (see Geraghty et al. for visual publication of intratracheal delivery). The oropharynx was opened so that a catheter/Penn Century MicroSprayer (Penn-Century, Wyndmoor, Philadelphia, PA) can be introduced into the trachea. The vocal cords and trachea were visualized by placing a light source against the trachea of the mouse. The MicroSprayer was inserted intratracheally, and the bleomycin solution (0.075 U/mouse) was instilled in 50 μL of sterile PBS. The MicroSprayer creates a mist rather than droplets, for better tissue distribution and reduces the risk of animal suffocation. Control mice were instilled with 50 μl of sterile PBS with no additives. This intratracheal maneuvering and delivery took about 30 seconds to complete. Animals were allowed to recover from sedation. Water was supplemented with the compound/drug beginning either before, 7 or 20 days after bleomycin treatment.
Ex-6 was dosed at 5 mg/kg in the bleomycin induced fibrosis. In vivo data is shown in FIG. 3: C57BL/6J mice were orally administered 5 mg/kg Ex-6 once daily, beginning on the same day as bleomycin (BLM) treatment to test if activation of PP2A could prevent establishment of idiopathic pulmonary fibrosis (IPF). […] Differences were shown in compliance, tissue elastance, and forced vital capacity of 3-month-old C57BL/6J mice following administration of vehicle or Example 6 after tracheal instillation of saline or bleomycin, indicating prevention of bleomycin-induced pulmonary fibrosis in mice by administration of Example 6. Graphs were represented as mean±S.E.M, where n=7 animals per group. P values, shown when comparing both treatments connected by a line, were determined by Student t-tests. […]

O=S(=O)(NC1CCOC(C2c3ccc(F)cc3CCc3cc(F)ccc32)C1)c1ccc(OC(F)(F)F)cc1 (stereo not shown) [Example 6, N-(2-(2,8-difluoro-10,11-dihydro-5H-dibenzo[a,d][7]annulen-5-yl)tetrahydro-2H-pyran-4-yl)-4-(trifluoromethoxy)benzenesulfonamide]
IC50 [1]: 9.9 µM
pro-fibrotic gene expression [2]: suppression of pro-fibrotic gene expression
ERK and JNK signaling [3]: reduced ERK and JNK signaling
bleomycin-induced PV loop changes, compliance, tissue elastance and forced vital capacity (FVC) ([4]; 5 mg/kg orally once daily from the day of bleomycin, C57BL/6J mice (FIG. 6)): prevented
collagen deposition in lung (trichrome staining) ([4]; bleomycin mice, vs vehicle control (FIG. 7)): attenuates collagen deposition
bleomycin-induction of fibrosis related genes Acta2, Ccn2, Col1a1, FN1 in lung tissue ([4]; bleomycin mice, vs vehicle control (FIG. 8)): suppressed
toxicity in mice (external appearance, behavior, body weight) ([4]; three-week administration, vs vehicle groups): no obvious toxicity
